Assay results published in US20150010498A1, “Immunocytokines for Cancer Treatment in Combination with Chemotherapeutic Agents” (Philogen S.p.A., priority 2007, published 2015).

Assays:
[1] = test system: MDA-MB-231 human breast cancer cells; experiment: Therapy of MDA-MB231 human breast cancer model implanted in nude mice (tumor growth); assay type: in vivo, Balb/c nude female mice; conditions: 4 mg/kg versus 1 mg/kg doxorubicin i.v.; FIG. 5
Protocol: Tumor-bearing mice were obtained by injecting 2*10̂7 MDA-MB-231 human breast cancer cells s.c. in 10- to 12-week old Balb/c nude female mice (Charles River Laboratories). Mice were grouped (n=5) 9 days after tumor cell implantation when tumors were clearly palpable and injected i.v. in the lateral tail vein with saline, 20 μg F16-IL2 (corresponding to 6.6 μg IL2), 6.6 μg recombinant IL2 (Proleukin®, and 4 mg/kg or 1 mg/kg Doxorubicin in a maximum volume of 250 μl. Mice were monitored daily and tumor growth was measured three times weekly with a caliper using the following formula: volume=length×width2×0.5. Animals were sacrificed when tumors reached a volume >2000 mm3 or when tumors became necrotic according to Swiss regulations and under a project license granted by the
Veterinäramt des Kantons Zürich (198/2005). Tumor sizes are expressed as mean±SE.
Tumor-bearing mice produced in the same way were injected i.v. in the lateral tail vein with saline, 20 μg F16-IL2 (corresponding to 6.6 μg IL2), and 1 mg/kg or 5 mg/kg taxol™ in a maximum volume of 250 μl. Mice were monitored and tumor growth measured as described above.

[2] = test system: MDA-MB-231 human breast cancer cells; experiment: Biodistribution of radioiodinated F16-IL2 after doxorubicin pre-injection; assay type: in vivo, Balb/c nude female mice; conditions: radioiodinated F16-IL2 i.v., sacrifice 24 h after injection; 10 mg/kg doxorubicin i.v. 8 days, 24 h or 2 h before; FIGS. 1 to 4
Protocol: The in vivo targeting performance was evaluated by biodistribution analysis. Tumor-bearing mice were obtained by injecting 10̂7 MDA-MB-231 human breast cancer cells s.c. in 10- to 12-week old Balb/c nude female mice (Charles River Laboratories). Mice were grouped (n≧5) when tumors were clearly palpable and injected i.v. in the lateral tail vein with 10 mg/kg doxorubicin 8 days, 24 h or 2 h prior to biodistribution. The control group was exempted from doxorubicin administration. Purified F16-IL2 was radioiodinated and injected into the lateral tail vein of all mice. Mice were sacrificed 24 h after injection (12.5 μg, 3.3 μCi per mouse). Organs were weighed and radioactivity was counted with a Packard Cobra gamma counter. Radioactivity content of representative organs was expressed as the percentage of the injected dose per gram of tissue (%ID/g).

tubulin = conditions: compared with paclitaxel; cited from earlier work

Question: With `COc1cccc2c1C(=O)c1c(O)c3c(c(O)c1C2=O)C[C@@](O)(C(=O)CO)C[C@@H]3OC1CC(N)C(O)C(C)O1` (stereo partly drawn) [doxorubicin, (8S, 10S)-10-(4-amino-5-hydroxy-6-methyl-tetrahydro-2H-pyran-2-yloxy)-6,8,11-trihydroxy-8-(2-hydroxyacetyl)-1-methoxy-7,8,9,10-tetrahydrotetracene-5,12-dione] as the molecule, how does the “effect of doxorubicin dose on efficacy” value [1] read?
Answer: higher doses of doxorubicin were even more effective than low doses

Question: Which “tumor targeting of the immunocytokine (biodistribution, %ID/g)” value [2] does the source give for “F16-IL2: antibody-IL2 conjugate: interleukin 2 conjugated to the anti-tenascin-C antibody 4A1-F16 (VH SEQ ID NO. 2, VL SEQ ID NO. 4)” here?
Answer: does not impair the tumor targeting

Question: Which “tubulin-assembly activity relative to paclitaxel” value (tubulin) does the source give for A-nor-paclitaxel here?
Answer: only three times less than that of paclitaxel
